Experimental findings from patent US9981969B2, “Imidazole derivatives and methods of use thereof for improving the pharmacokinetics of a drug” (MERCK SHARP & DOHME CORP., priority 2013, dated 2018) are described below.

Bounds are passed on as bounds.

One assay addresses T1, CYP3A4 (Homo sapiens, UniProt P08684).
T1 construct: 0.1 mg/mL protein human liver microsomes (BD Gentest); tissue BD Gentest; host or cells: human liver microsomes
Kind of assay: Cocktail assay for CYPs in human liver microsomes, midazolam 1′-hydroxylation (3A4). Conditions: 2 μM midazolam, 10 min at 37° C. The class given is biochemical. The procedure, abridged: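 CYP3A4 inhibition was measured in human liver microsomes (0.1 mg/mL protein) with 2 μM midazolam as the probe substrate, 1 mM NAPDH, 3.3 mM MgCl2 and 100 mM potassium phosphate buffer (pH 7.4), incubated 10 min at 37° C. After acetonitrile treatment, metabolite was quantified by LC/MS/MS against a tolbutamide internal standard. Percent inhibition at 6 concentrations gave IC50 by SigmaPlot non-linear regression.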

For another assay, the target named is T2, CYP1A2 (Homo sapiens, UniProt P05177).
T2 construct: 0.1 mg/mL protein human liver microsomes (BD Gentest); tissue BD Gentest; host or cells: human liver microsomes
T2 sequence (P05177 1-516): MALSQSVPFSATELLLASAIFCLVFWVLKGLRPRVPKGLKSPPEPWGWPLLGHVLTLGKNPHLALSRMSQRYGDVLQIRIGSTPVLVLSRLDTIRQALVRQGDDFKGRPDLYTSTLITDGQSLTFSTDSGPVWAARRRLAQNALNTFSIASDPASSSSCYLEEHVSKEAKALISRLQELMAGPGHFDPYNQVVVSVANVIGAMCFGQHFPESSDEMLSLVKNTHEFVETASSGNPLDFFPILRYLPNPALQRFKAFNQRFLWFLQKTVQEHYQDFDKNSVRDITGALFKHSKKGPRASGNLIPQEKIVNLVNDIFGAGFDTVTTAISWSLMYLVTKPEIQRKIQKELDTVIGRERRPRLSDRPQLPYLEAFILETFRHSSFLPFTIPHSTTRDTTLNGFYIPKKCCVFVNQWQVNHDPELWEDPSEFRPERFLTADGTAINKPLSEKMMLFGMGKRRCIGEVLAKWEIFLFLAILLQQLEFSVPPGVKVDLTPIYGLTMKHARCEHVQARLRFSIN
The assay can be described thus: Cocktail assay for CYPs in human liver microsomes, phenacetin O-deethylation (1A2). The class given is biochemical. Conditions: 10 μM phenacetin, 10 min at 37° C. In a few lines:
(§1)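 Pooled human liver microsomes (0.1 mg/mL) with substrate cocktail (10 μM phenacetin, 5 μM diclofenac, 30 μM mephenytoin, 5 μM dextromethorphan), 1 mM NADPH, pH 7.4 phosphate, 10 min at 37 °C. Metabolites by LC/MS/MS; IC50 from % inhibition at 6 concentrations up to 10 μM.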

The target in another assay is T3, CYP2C9 (Homo sapiens, UniProt P11712).
T3 construct: 0.1 mg/mL protein human liver microsomes (BD Gentest); tissue BD Gentest; host or cells: human liver microsomes
The assay can be described thus: Cocktail assay for CYPs in human liver microsomes, diclofenac 4′-hydroxylation (2C9). The class given is biochemical. Conditions: 5 μM diclofenac, 10 min at 37° C. In a few lines: as §1

In a further assay the target is T4, CYP2C19 (Homo sapiens, UniProt P33261).
T4 construct: 0.1 mg/mL protein human liver microsomes (BD Gentest); tissue BD Gentest; host or cells: human liver microsomes
The assay can be described thus: Cocktail assay for CYPs in human liver microsomes, mephenytoin 4′-hydroxylation (2C19). The class given is biochemical. Conditions: 30 μM mephenytoin, 10 min at 37° C. In a few lines:
as §1

The target in the next assay is T5, CYP2D6 (Homo sapiens, UniProt P10635).
T5 construct: 0.1 mg/mL protein human liver microsomes (BD Gentest); tissue BD Gentest; host or cells: human liver microsomes
The assay can be described thus: Cocktail assay for CYPs in human liver microsomes, dextromethorphan O-demethylation (2D6). It is filed as biochemical. The conditions noted are these: 5 μM dextromethorphan, 10 min at 37° C. The procedure, abridged: as §1

The target in the next assay is T6, human CYP11B1 (Homo sapiens, UniProt P15538).
T6 construct: expressed in transfected cells
T6 sequence (P15538 25-503): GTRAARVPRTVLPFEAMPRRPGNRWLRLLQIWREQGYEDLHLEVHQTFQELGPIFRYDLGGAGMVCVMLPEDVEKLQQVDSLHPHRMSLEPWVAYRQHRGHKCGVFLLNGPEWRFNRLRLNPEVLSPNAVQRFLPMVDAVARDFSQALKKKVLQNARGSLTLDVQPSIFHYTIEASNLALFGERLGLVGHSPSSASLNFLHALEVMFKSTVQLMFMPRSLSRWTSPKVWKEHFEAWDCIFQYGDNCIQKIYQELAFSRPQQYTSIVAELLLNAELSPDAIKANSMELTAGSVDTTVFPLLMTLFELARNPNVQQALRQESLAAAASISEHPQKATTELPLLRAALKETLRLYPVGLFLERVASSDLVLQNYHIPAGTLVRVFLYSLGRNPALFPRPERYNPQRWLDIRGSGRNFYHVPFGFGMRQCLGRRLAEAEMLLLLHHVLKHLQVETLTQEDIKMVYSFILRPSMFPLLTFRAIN
The assay can be described thus: IC50 vs CYP11B1 by measurement of cortisol synthesis in V79 cells. The class given is cell-based. Conditions: V79 cells expressing human CYP11B1, 1500 nM RSS, cortisol HTRF. In a few lines: (§2)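 V79 cells stably expressing CYP11B1 or CYP11B2 were treated with test compound at 10 concentrations (e.g. 10000 down to 0.5 nM), with 1500 nM RSS (CYP11B1) or 750 nM DOC (CYP11B2) as substrate. After ~15 h at RT in the dark, supernatant cortisol/aldosterone was measured by HTRF and back-calculated from a standard curve. IC50 was taken as the inflection point of a four-parameter fit.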

The target of a further assay is T7, human CYP11B2 (Homo sapiens, UniProt P19099).
T7 construct: expressed in transfected cells
T7 sequence (P19099 25-503): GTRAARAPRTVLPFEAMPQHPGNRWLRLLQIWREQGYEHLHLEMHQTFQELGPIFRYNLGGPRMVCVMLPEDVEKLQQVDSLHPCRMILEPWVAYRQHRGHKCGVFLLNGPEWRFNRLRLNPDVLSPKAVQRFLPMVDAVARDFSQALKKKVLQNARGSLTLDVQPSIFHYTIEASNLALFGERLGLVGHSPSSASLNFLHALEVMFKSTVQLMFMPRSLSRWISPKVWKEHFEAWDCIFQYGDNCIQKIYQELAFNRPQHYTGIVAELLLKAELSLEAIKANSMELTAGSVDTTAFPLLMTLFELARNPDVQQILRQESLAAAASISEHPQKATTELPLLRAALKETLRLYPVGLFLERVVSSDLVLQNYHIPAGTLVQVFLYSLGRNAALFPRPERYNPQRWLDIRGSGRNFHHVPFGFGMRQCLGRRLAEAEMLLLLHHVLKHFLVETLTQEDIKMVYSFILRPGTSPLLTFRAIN
The assay can be described thus: IC50 vs CYP11B2 by measurement of aldosterone synthesis in V79 cells. It is filed as cell-based. Conditions: V79 cells expressing human CYP11B2, 750 nM DOC, aldosterone HTRF. In a few lines:
as §2

T4 sequence (P33261 whole entry): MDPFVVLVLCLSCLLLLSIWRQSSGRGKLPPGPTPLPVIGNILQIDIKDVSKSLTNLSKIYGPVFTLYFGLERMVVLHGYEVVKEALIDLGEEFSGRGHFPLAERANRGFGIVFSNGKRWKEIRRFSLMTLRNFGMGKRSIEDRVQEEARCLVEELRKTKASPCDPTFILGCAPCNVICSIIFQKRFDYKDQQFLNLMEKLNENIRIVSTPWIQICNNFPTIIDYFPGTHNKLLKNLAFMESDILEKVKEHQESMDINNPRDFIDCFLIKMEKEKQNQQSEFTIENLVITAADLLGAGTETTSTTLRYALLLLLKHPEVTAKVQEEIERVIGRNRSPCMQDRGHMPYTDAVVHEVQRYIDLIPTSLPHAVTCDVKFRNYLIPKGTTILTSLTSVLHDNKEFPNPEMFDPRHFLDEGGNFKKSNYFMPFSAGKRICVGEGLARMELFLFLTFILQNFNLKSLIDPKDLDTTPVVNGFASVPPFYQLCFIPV
T1 sequence (P08684 whole entry): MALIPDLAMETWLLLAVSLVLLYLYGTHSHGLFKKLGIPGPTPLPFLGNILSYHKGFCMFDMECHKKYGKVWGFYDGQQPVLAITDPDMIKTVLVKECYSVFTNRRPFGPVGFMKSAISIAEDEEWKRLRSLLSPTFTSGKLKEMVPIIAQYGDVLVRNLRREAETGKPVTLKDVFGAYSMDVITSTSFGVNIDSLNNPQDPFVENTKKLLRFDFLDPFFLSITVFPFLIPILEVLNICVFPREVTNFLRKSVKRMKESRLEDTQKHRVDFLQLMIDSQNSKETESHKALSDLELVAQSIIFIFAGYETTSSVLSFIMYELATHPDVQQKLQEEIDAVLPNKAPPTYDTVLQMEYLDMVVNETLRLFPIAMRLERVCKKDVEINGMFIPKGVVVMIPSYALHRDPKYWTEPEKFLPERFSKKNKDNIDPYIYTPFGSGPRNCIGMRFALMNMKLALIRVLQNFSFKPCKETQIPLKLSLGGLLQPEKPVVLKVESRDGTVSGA
T3 sequence (P11712 whole entry): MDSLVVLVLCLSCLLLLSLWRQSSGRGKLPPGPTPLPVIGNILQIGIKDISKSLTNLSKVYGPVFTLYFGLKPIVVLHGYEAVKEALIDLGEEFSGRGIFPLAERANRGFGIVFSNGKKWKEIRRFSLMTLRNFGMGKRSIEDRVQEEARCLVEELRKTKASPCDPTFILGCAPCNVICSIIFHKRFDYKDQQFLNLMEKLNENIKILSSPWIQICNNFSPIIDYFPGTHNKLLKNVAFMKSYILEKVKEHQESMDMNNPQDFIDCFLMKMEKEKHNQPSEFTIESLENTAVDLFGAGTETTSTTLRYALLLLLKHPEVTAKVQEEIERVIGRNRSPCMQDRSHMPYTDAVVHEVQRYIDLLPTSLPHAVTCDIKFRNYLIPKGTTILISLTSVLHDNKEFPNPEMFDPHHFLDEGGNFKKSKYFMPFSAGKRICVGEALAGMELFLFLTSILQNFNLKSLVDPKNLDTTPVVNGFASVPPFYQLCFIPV
T5 sequence (P10635 whole entry): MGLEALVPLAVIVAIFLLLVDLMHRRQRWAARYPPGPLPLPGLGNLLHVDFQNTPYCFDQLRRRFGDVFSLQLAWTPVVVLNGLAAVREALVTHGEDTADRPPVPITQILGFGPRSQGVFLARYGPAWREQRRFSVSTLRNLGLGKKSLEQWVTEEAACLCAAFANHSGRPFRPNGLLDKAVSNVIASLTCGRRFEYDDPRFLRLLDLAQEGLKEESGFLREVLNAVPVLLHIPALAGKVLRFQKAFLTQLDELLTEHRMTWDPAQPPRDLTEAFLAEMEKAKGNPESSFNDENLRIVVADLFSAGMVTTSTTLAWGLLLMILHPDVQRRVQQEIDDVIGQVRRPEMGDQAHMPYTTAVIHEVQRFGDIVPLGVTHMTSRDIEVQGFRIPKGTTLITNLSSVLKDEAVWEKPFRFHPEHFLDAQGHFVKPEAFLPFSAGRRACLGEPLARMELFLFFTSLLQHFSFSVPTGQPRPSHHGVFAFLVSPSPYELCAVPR

For the compound `C[C@@H](c1ccccc1-c1ccc(F)cc1)n1cncc1C(=O)N1CC[C@@H](N2CCOCC2)[C@@H](F)C1` [Compound 29], the IC50 is 0.0063 µM against CYP3A4; over 10 µM on CYP1A2; over 10 µM against CYP2C9; over 10 µM against CYP2C19; 6.22 µM at CYP2D6; 22 µM on human CYP11B1. The same compound displayed a half-inhibitory concentration (IC50) against human CYP11B2 of over 50 µM.
With `C[C@@H](c1ccccc1-c1ccc(F)cc1)n1cncc1C(=O)N1CCC(NC2COC[C@H]2O)CC1` (stereo partly drawn) [Compound 24], the half-inhibitory concentration (IC50) at CYP3A4 is 0.0057 µM; on CYP1A2, over 10 µM; on CYP2C9 it was over 10 µM; against CYP2C19 it was over 10 µM; at CYP2D6 it was over 10 µM; at human CYP11B1, over 50 µM. This compound returned a 50% inhibitory concentration (IC50) on human CYP11B2 of over 50 µM.
On to `C[C@@H](c1ccccc1-c1ccc(F)cc1)n1cncc1C(=O)N1CCCC(N2CCC(C)(O)CC2)CC1` (single isomer, unassigned) [Compound 3a], for which the half-inhibitory concentration (IC50) was 0.0073 µM on CYP3A4; over 10 µM on CYP1A2; over 10 µM against CYP2C9; over 10 µM against CYP2C19; 4.05 µM on CYP2D6; 37.4 µM on human CYP11B1. On human CYP11B2, this compound yielded an IC50 of over 50 µM.
